Read-outs that look alike come from different tables or passages of the source.
Experiments:
[1] = system: BGC-823 cells; assay: cells; details: Homo sapiens, BGC-823, 24 h, read-out: inhibition rate (IR%) on BGC-823 cells
[2] = system: HeLa cells; assay: cells; details: Homo sapiens, 24 h, read-out: inhibition rate (IR%) on HeLa cells
[3] = system: K562 cells; assay: cells; details: Homo sapiens, K562, 24 h, read-out: inhibition rate (IR%) on K562 cells
[4] = system: HL-60 cells; assay: cells; details: Homo sapiens, HL-60, 24 h, read-out: inhibition rate (IR%) on HL-60 cells
[5] = system: MCF-7 cells; assay: cells; details: Homo sapiens, MCF7, 24 h, read-out: inhibition rate (IR%) on MCF-7 cells
[6] = system: BGC-823 cells; details: MTT, 24 h
[7] = system: HL-60 cells; details: MTT, 24 h
[8] = system: K562 cells; parameters: inhibition rate (IR%) on K562 cells: dose or concentration left out as unconfirmed
[9] = system: HeLa cells; details: MTT, 24 h
[10] = system: murine leukemia P388 and L1210, and human epidermoid carcinoma KB cells; details: one range for both compounds and three cell lines; cited from earlier work
Procedure: (§1) Fellutamide A and B (8) were originally identified for their cytotoxic properties on murine leukemia P388 and L1210, and human epidermoid carcinoma KB cells with IC50 values 0.1–0.8 µg/mL [15].

[11] = system: human prostate carcinoma PC-3 cells; details: read-out: IC50, cytotoxic against PC-3 cells; cited from earlier work
Procedure: as §1

[12] = from IR% at different concentrations
[13] = MTT, 24 h at 37 °C, OD 570 nm, OD means of three wells

Which inhibition at 100 µg/mL [1] does the source give for `O=c1[nH]cc(F)c(=O)[nH]1` [Compound 5-FU, 5-fluorouracil] here?
Its inhibition at 100 µg/mL is 47.8%.

And the inhibition at 100 µg/mL [2]?
The inhibition at 100 µg/mL was 37.4%.

And the inhibition at 100 µg/mL [3]?
The inhibition at 100 µg/mL was 48.5%.

And the inhibition at 100 µg/mL [4]?
Its inhibition at 100 µg/mL is 38.2%.

What about the inhibition at 100 µg/mL [5] of the same molecule?
The inhibition at 100 µg/mL was 47.4%.

For `CCCCCCCCC[C@@H](O)CC(=O)N[C@@H](CC(N)=O)C(=O)N[C@@H](CCC(N)=O)C(=O)N[C@H](C=O)CC(C)C` [Compound 8, Fellutamide B], which “half-inhibitory concentration (IC50) for BGC-823” value [6, 12] is on record?
The value was 77.9 µg/mL.

What about the IC50 ([6]; read-out: half-inhibitory concentration (IC50) for BGC-823, value in brackets, molar) of the same molecule?
Its IC50 is 140 µM.

And the “half-inhibitory concentration (IC50) for HL-60” value [7, 12]?
Its value is 59.9 µg/mL.

What about the IC50 ([7]; read-out: half-inhibitory concentration (IC50) for HL-60, value in brackets, molar) of the same molecule?
The IC50 was 108 µM.

What about the IC50 ([8]; 24 h) of the same molecule?
Its IC50 is 52.5 µM.

What about the “half-inhibitory concentration (IC50) for K562” value ([8]; MTT, 24 h, from IR% at different concentrations) of the same molecule?
The value was 29.1 µg/mL.

What about the “half-inhibitory concentration (IC50) for HeLa” value [9, 12] of the same molecule?
Its value is 59.5 µg/mL.

What about the IC50 ([9]; read-out: half-inhibitory concentration (IC50) for HeLa, value in brackets, molar) of the same molecule?
Its IC50 is 107 µM.

What about the “IC50, cytotoxic properties on P388, L1210 and KB cells” value [10] of the same molecule?
Its value is 0.1 to 0.8 µg/mL.

For `CCCCC[C@H](OC)c1c(O)cc2c(c1O)C(=O)c1c(O)cc(O)cc1C2=O` [Compound 10, 1′-O-Methylaverantin], which “inhibition rate (IR%) on K562 cells” value [8, 13] is on record?
The value was 11.6%.

For `CCCCC[C@H](O)c1c(O)cc2c(c1O)C(=O)c1c(O)cc(O)cc1C2=O` [Compound 11, Averantin], which “inhibition rate (IR%) on K562 cells” value [8, 13] is on record?
The value was 51.9%.

For `C[C@]12CCC[C@H](O1)c1c(cc3c(c1O)C(=O)c1c(O)cc(O)cc1C3=O)O2` [Compound 12, Averufin], which “inhibition rate (IR%) on K562 cells” value [8, 13] is on record?
The value was 37.9%.

Which “inhibition rate (IR%) on K562 cells” value [8, 13] does the source give for `C[C@]12CC[C@H](O)[C@H](O1)c1c(cc3c(c1O)C(=O)c1c(O)cc(O)cc1C3=O)O2` [Compound 13, Nidurufin] here?
Its value is 25.5%.

With `COc1cc2c(c3oc4cccc(O)c4c(=O)c13)[C@@H]1C=CO[C@@H]1O2` [Compound 14, Sterigmatocystin] as the molecule, how does the “inhibition rate (IR%) on K562 cells” value [8] read?
Its value is 37.5%.

For Fellutamide A [reference compound], which “IC50, cytotoxic properties on P388, L1210 and KB cells” value [10] is on record?
The value was 0.1 to 0.8 µg/mL.

With fellutamide D as the molecule, how does the IC50 [11] read?
The IC50 was 0.16 µM.

For fellutamide E, which IC50 [11] is on record?
Its IC50 is 0.44 µM.

Reference: article PMC4012460, “Seven New and Two Known Lipopeptides as well as Five Known Polyketides: The Activated Production of Silent Metabolites in a Marine-Derived Fungus by Chemical Mutagenesis Strategy Using Diethyl Sulphate” (Marine Drugs, 2014)
